Measurements from PubChem BioAssay AID256 (DTP/NCI, 2004).
Toxic doses and inconclusive results are not listed. How the source made its calls: active means survival T/C of 150% or more; inactive means T/C below 125% in these data.

Tested on: CD2F1 mice, L1210 leukemia ip, survival T/C
Assay: NCI In Vivo Anticancer Drug Screen. Data for tumor model L1210 Leukemia (intraperitoneal) in CD2F1 (CDF1) mice
Conditions: endpoint: mean survival time, higher = longer survival
Outline: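 Tumor-bearing mice (transplanted tumor) were split into treated and vehicle control groups, and the measured endpoint of each treated group was divided by that of its vehicle controls.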

[1] = dose: 100.0 mg/kg/injection, schedule: Q01DX009 (ip), vehicle: saline with Tween-80
[2] = dose: 200.0 mg/kg/injection, schedule: Q01DX009 (ip), vehicle: saline with Tween-80
[3] = dose: 400.0 mg/kg/injection, schedule: Q01DX009 (ip), vehicle: saline with Tween-80

Measured: T/C

COC(=O)c1ccccc1NC1=NCCO1
inactive: dose: 200.0 mg/kg/injection, schedule: Q04DX003 (ip), vehicle: Klucel (hydroxypropylcellulose) (HPC) 97 % of control | dose: 400.0 mg/kg/injection, schedule: Q04DX003 (ip), vehicle: Klucel (hydroxypropylcellulose) (HPC) 86 % of control

C=CCOC(=O)C1c2ccccc2Cc2ccccc21
inactive: [1] 92 % of control | [2] 106 % of control | [3] 92 % of control

COc1cc(NC(C)=O)ccn1
inactive: [1] 95 % of control | [2] 96 % of control | [3] 102 % of control

CCCCCC/C=C/C(O)CC (stereo unspecified)
inactive: dose: 100.0 mg/kg/injection, schedule: Q04DX003 (ip), vehicle: saline 100 % of control | dose: 200.0 mg/kg/injection, schedule: Q04DX003 (ip), vehicle: saline 95 % of control | dose: 400.0 mg/kg/injection, schedule: Q04DX003 (ip), vehicle: saline 103 % of control

CC1(C)OC2C(C3N(c4ccccc4)CCN3c3ccccc3)OC(n3ccc(=O)[nH]c3=O)C2O1 (stereo unspecified)
inactive: dose: 12.5 mg/kg/injection, schedule: Q01DX005 (ip), vehicle: distilled water + Tween-80 97 % of control | dose: 25.0 mg/kg/injection, schedule: Q01DX005 (ip), vehicle: distilled water + Tween-80 94 % of control | dose: 50.0 mg/kg/injection, schedule: Q01DX005 (ip), vehicle: distilled water + Tween-80 94 % of control | dose: 100.0 mg/kg/injection, schedule: Q01DX005 (ip), vehicle: distilled water + Tween-80 91 % of control | dose: 200.0 mg/kg/injection, schedule: Q01DX005 (ip), vehicle: distilled water + Tween-80 96 % of control
